Measured values reported in patent publication US20190359560A1, “ANTI-INFLAMMATORY DRUG AND USES THEREOF” (KYUSHU UNIVERSITY, NATIONAL UNIVERSITY CORPORATION, priority 2015, published 2019).

What was measured:
Bmal1 promoter = Bmal1 promoter luciferase assay in MEF cell line; type: cell-based; conditions: MEF reporter cell line, 10 μM, 24 hours
Procedure: Therefore, in order to exclude compounds having an effect on clock genes in normal cells, studies were conducted using the MEF cell line stably expressing an expression cassette in which a luciferase gene was ligated to the downstream side of the Bmal1 promoter.

[1] = test system: nuclear receptor RARα mRNA; test: RARα mRNA expression in Hepa1-6 cells (qRT-PCR); type: cell-based, mouse; conditions: 10 μM, 24 hours
G0S2 promoter = G0S2 promoter luciferase activity in O-4000E cell line, IC50; type: cell-based, mouse; conditions: O-4000E cells, 24 hours after exposure
Procedure: The present inventors have searched for a G0S2 gene transcription inhibitor. In searching, the present inventors have received a compound library consisting of 9600 compounds (Core library) from the Open Innovation Center for Drug Discovery, The University of Tokyo. For this compound library, primary screening was carried out by evaluating an effect of compounds on a luciferase activity using a 384-well plate. The drug efficacy evaluation was studied three times for each compound (final concentration of 10 μM) using a cell line stably expressing an expression cassette in which a luciferase gene was ligated to the downstream side of the G0S2 promoter (−2030→−1378), and compounds which reduced a luciferase activity to less than ¼ were extracted from all studies. As a result, 175 compounds were hit.
For the evaluation of drug efficacy of Compound Nos. 1 and 2, which are hit compounds, an IC50 was calculated. The O-4000E cell line was seeded, and Compound Nos. 1 and 2 were serially diluted in […] so as to have final concentrations of 0.15625 μM to 10 μM, followed by exposure of the cells to the compounds. The luciferase activity was measured 24 hours after the exposure, and the curve fitting was carried out to calculate an IC50 of the compounds.
Detailed drug efficacy evaluation at low concentrations was carried out for the compound of Example 2 (NS-3-011) whose drug efficacy at a concentration of less than 10 μM was observed based on the studies so far and which is expected to have an effect equal to or more than that of Compound No. 2. First, using O-4000E cells, IC50 of Compound No. 2 and the compound of Example 2 (NS-3-011) on the G0S2 promoter activity was calculated.

G0S2 mRNA = G0S2 mRNA in liver of normal mice; type: in vivo, mouse; conditions: normal ICR male mice, 15 mg/kg subcutaneous
Procedure: An effect of Compound No. 2 with a lower IC50 value on the expression level of G0S2 mRNA in the liver of normal mice was examined. Compound No. 2 was subcutaneously administered on the dorsal region of ICR male mice at a dose of 15 mg/kg. The expression level of G0S2 mRNA in the liver at 30 minutes, 1, 2, 4, 6, 12, and 24 hours after the administration of Compound No. 2 was measured.

Ccl2 mRNA = test: LPS hepatitis model mouse: Ccl2 mRNA in liver; type: in vivo
Procedure: Next, whether or not Compound No. 2 whose effect in vivo was confirmed has an effect to antagonize the activation of an inflammatory signal was examined. Hepa1-6 cells were exposed to Compound No. 2 at a dose of 10 μM simultaneously with exposure to lipopolysaccharide (LPS) or TNFα which activates NF-κB for which the G0S2 protein acts as a regulator. As shown in FIGS. 10A and 10B, the cells were recovered 12 hours after the exposure and the expression level of Ccl2 mRNA was measured. […] In addition, 25 μg of LPS was administered to the tail vein of a mouse to thereby construct a hepatitis model. 30 minutes after the administration of LPS, Compound No. 2 (5 mg/kg) was administered to the tail vein of the mouse, and the liver was sampled at 6 hours.
LPS (10 μg/mouse) was administered to ICR male mice by tail vein injection to prepare an LPS-administered group. […]
In addition, for the liver of mice of each group, the expression level of mRNA of Ccl2, which is a target gene of NF-κB, was quantified by real-time PCR. FIG. 11C is a graph showing the quantitative results of the expression level of mRNA of Ccl2.
10 μg of LPS was intraperitoneally administered to mice to construct a hepatitis model. […] 5 hours after the administration of each compound, the liver was harvested from each mouse and the expression level of Ccl2 was quantified by real-time PCR.

p65 protein (NF-κB) = test: LPS-administered mice: nuclear abundance of p65 protein in liver (Western blotting); type: in vivo; conditions: LPS 10 μg/mouse tail vein; 5 mg/kg subcutaneous 1 hour after LPS; liver 5 hours later; vs LPS group
Procedure: LPS (10 μg/mouse) was administered to ICR male mice by tail vein injection to prepare an LPS-administered group. In addition, a mouse to which physiological saline was administered instead of LPS was prepared and used as a control group. Subsequently, the LPS-administered group was divided into two groups, in which 1 hour after the administration of LPS, Compound No. 2 was subcutaneously administered at a dose of 5 mg/kg to the dorsal region of mice of one group which was then served as an LPS+No. 2-administered group. Subsequently, 5 hours after the administration of Compound No. 2, mice of each group were sacrificed and the liver was harvested.
For the liver of mice of each group, the nuclear abundance of the p65 protein, which is one of the constituent proteins of NF-κB, was quantified by Western blotting. FIG. 11B is a graph showing the quantitative results of the p65 protein.

[2] = test system: neuropathic pain model mouse; test: Neuropathic pain model constructed by cancer transplantation; type: in vivo; conditions: tumor-bearing mice 2 weeks after cancer transplantation, 15 mg/kg subcutaneous, at 4, 6 and 8 hours
Procedure: The neuropathic pain model constructed by cancer transplantation activates NF-κB. Therefore, a dose of 15 mg/kg of Compound No. 2 was subcutaneously administered to a model mouse in which the […] was carried out at 2 weeks after cancer transplantation and the pain intensity was measured to confirm that pain was induced.

[3] = Blood and liver concentration after oral administration (LC/MS/MS); type: in vivo, mouse; conditions: mice, 15 mg/kg oral
Procedure: Compound No. 2 (15 mg/kg) was orally administered to mice. Blood was collected at 0 minutes, 5 minutes, 15 minutes, 30 minutes, 1 hour, 2 hours, 4 hours, 6 hours and 12 hours after the administration of Compound No. 2 and the blood concentration of the compound was measured by LC/MS/MS. In addition, the liver was harvested at 0 minutes, 5 minutes, 15 minutes, 30 minutes, 1 hour and 6 hours after the administration of Compound No. 2, and the liver concentration of the compound was measured by LC/MS/MS.

IC50 (G0S2 promoter; Mus musculus, 24 h): 2250 nM | IC50 (G0S2 promoter): 2310 nM | time after administration at which concentration in blood was highest [3]: 15 min | time after administration at which concentration in liver was highest [3]: 5 min
Compound: CCCCCCNC(=N)NCc1ccccc1 [Compound No. 2]
Bmal1 promoter activity (Bmal1 promoter): no significant change | expression level of nuclear receptor RARα mRNA [1]: no change | expression level of G0S2 mRNA in the liver (G0S2 mRNA; 2 hours and 12 hours): significantly decreased | expression level of G0S2 mRNA in the liver (G0S2 mRNA; 4 hours after administration): tended to decrease to about half | expression level of Ccl2 mRNA in the liver (Ccl2 mRNA; LPS 10 μg/mouse tail vein, 5 mg/kg subcutaneous 1 hour after LPS, liver 5 hours later, vs LPS group): significantly decreased | expression of Ccl2 mRNA in the liver (Ccl2 mRNA; LPS 25 μg tail vein, compound 5 mg/kg tail vein 30 minutes after LPS, liver at 6 hours): significantly inhibited | nuclear abundance of the p65 protein in the liver (p65 protein (NF-κB)): significantly decreased | pain intensity (PWT) over time [2]: significantly relieved
